According to patent US4812456A, “1-(N-(2-alkylthio-10H-phenothiazin-10-yl)alkyl)-4-benzoylpiperidines and pharmaceutical use” (Hoechst-Roussel Pharmaceuticals Inc., priority 1987, dated 1989):

What was measured:
[1] = test system: mice; experiment: phenyl-p-quinone writhing assay in mice (analgesic activity, modified); type: in vivo, male mice (Charles River, CD-1); details: Mus musculus, sc, tested at peak time, estimated dose at which 50% inhibition of writhing is produced, computer linear regression
Protocol: The procedure employed to determine analgesic utility is a modification of the phenyl-p-quinone writhing assay in mice, a standard assay for analgesia (Proc. Soc. Exptl. Bio. Med., 95 729 (1957)]. In the modified procedure phenyl-p-benzoquinone (Eastman, 12.5 mg) is dissolved in 5 ml of 95% ethanol and the solution is diluted to a total volume of 100 ml with distilled water. The solution is administered to the subject mice […] at a dose of 10 ml per kg of body weight. A characteristic "writh", an inward rotation of one or more feet with twisting and turning of the trunk, drawing in of the abdominal wall, lordosis and arching of the back, is produced.
A total of 28 male mice (Charles River, CD-1), weighing 18 to 30 grams, are employed for a time response. The subject animals receive food and water ad libitum. Test compounds are dissolved in distilled water, or suspended in distilled water containing one drop of a suitable surfactant, such as Tween-80.
Four groups of five animals (20 animals) are given the test compound subcutaneously at 15, 30, 45 and 60 minutes prior to administration of the phenyl-p-quinone. Four control groups of 2 animals (8 animals) receive an equal volume of the vehicle. […] The number of writhes for each animal is recorded. […]

[2] = test system: mice; experiment: climbing mice assay (apomorphine climbing, antipsychotic activity); type: in vivo, CK-1 male mice; details: Mus musculus, ip, compound 30 minutes prior to apomorphine 1.5 mg/kg subcutaneously, climbing scores at 10, 20 and 30 minutes, linear regression, read-out: Anti-Psychotic Activity (ED50)
Description: The subject CK-1 male mice (23-27 grams) are group-housed under standard laboratory conditions. The mice are individually placed in wire mesh stick cages (4"×4" by 10") and are allowed one hour for adaptation and exploration of the new environment.
Mice consistently climbing before the injection of apomorphine are discarded.
With full-developed apomorphine climbing, the animals are hanging onto the cage walls, rather motionless, over longer periods of time. By contrast, climbs due to mere motor stimulation usually last only a few seconds.

| SMILES | ED50 [1] [mg/kg] | ED50 [2] [mg/kg] |
| --- | --- | --- |
| CC(C)=CCN1CCC2(C)c3cc(O)ccc3CC1C2C (stereo not shown) [Pentazocine] | 1.3 | – |
| CSc1ccc2c(c1)N(CCC1CCCCN1C)c1ccccc1S2 (stereo not shown) [Thioridazine] | – | 4.1 |
| CSc1ccc2c(c1)N(CCCN1CCC(C(=O)c3ccc(F)cc3)CC1)c1ccccc1S2.O=C(O)/C=C/C(=O)O [4-(4-Fluorobenzoyl)-1-[3-(2-methylthio-10H-phenothiazin-10-yl)propyl]piperidine fumarate] | 6.1 | 1.4 |
